Data set [1] has as its system phosphorylation of MAP kinase (ERK) in murine colon 26 (C26) carcinoma cells. Description: Cellular assay for measuring MEK inhibition: inhibition of ERK phosphorylation, C26CPA1. In kind it is cell-based. Conditions: Mus musculus, 1 h, C26 cells treated one hour with test compound. How it is done: (§1) Cellular Assay for Measuring MEK Inhibition
(§2) MEK inhibitors were evaluated by determining their ability to inhibit phosphorylation of MAP kinase (ERK) in murine colon 26 (C26) carcinoma cells. Since ERK1 and ERK2 represent the only known substrates for MEK1 and MEK2, the measurement of inhibition of ERK phosphorylation in cells provides direct read out of cellular MEK inhibition by the compounds of the invention. Detection of phosphorylation of ERK was carried out either by Western blot or ELISA format. Briefly, the assays involve treatment of exponentially growing C26 cells with varying concentrations of the test compound (or vehicle control) for one hour at 35° C. For Western blot assay, cells were rinsed free of compound/vehicle and lysed in a solution containing 50 mM NaCl, 50 mM glycerol phosphate, 10 mM HEPES, pH […], 1% Triton X-100, 1 mM Na3VO4, 100 μM PMSF, 10 μM leupeptin and 10 μM pepstatin. Supernatants were then subjected to gel electrophoresis and hybridized to a primary antibody recognizing dually phosphorylated ERK1 and ERK2. To evaluate total MAPK levels, blots were subsequently ‘stripped’ and re-probed with a 1:1 mixture of polyclonal antibodies recognizing unphosphorylated ERK1 and ERK2. For pERK ELISA assay, pERK TiterZyme Enzyme immunometric Assay kits were acquired from Assay Designs, Inc (Ann Arbor, Mich.). Briefly, cells were harvested in lysis solution containing 50 mM β-glycerophosphate, 10 mM HEPES, pH5.4, 50 mM NaCl, 2mM EDTA and 1% SDS and protein lysates were diluted 1:15 with supplied Assay buffer prior to the execution of the assay. The subsequent steps were carried out essentially as recommended by the manufacturer.
(§3) The inhibition data generated by the above protocol is disclosed in Table I. If several concentrations of inhibitor were tested, IC50 values (the concentration which gives 50% inhiition) were determined graphically from the dose response curve for % inhibition. Otherwise, percent inhibitions at measured concentrations are reported.
(§4) Table I. Cellular Inhibition of ERK Phosphorylation by Compounds of the Invention

For data set [2] the test system is unchanged. Nature of the data set: Cellular assay for measuring MEK inhibition: inhibition of ERK phosphorylation, C26ELSA (pERK ELISA). Conditions: Mus musculus, 1 h, C26 cells treated one hour with test compound. In kind it is cell-based. As to the method: as §1, §2, §3, §4
For orientation: An ELISA detects its analyte on a solid surface through an enzyme-linked reagent.

One may read the IC50 as the concentration at which inhibition is half-maximal. Consider `Cn1cnc2c(F)c(Nc3ccc(I)cc3F)c(C(=O)NCCO)cc21` [Compound 25], for which the concentration for half-maximal inhibition (IC50) in data set [1] is 122 nM.
Compound `Cn1cnc2c(F)c(Nc3ccc(I)cc3F)c(CO)cc21` [Compound 40] displayed an IC50 in data set [1] of 80 nM.
As to `Cn1cnc2c(F)c(Nc3ccc(I)cc3F)c(C(N)=O)cc21` [Compound 23], the results for the IC50 in data set [1] and in data set [2] were 2 nM and 8.42 nM, respectively.
`Cn1cnc2c(F)c(Nc3ccc(I)cc3F)c(-c3nnc(NCCO)o3)cc21` [Compound 6] displayed a concentration for half-maximal inhibition (IC50) in data set [1] of 569 nM.
Take `CCc1ccc(Nc2c(C(N)=O)cc3c(ncn3C)c2F)c(F)c1` [Compound 42]: in data set [2], the IC50 turned out to be 280 nM.
The same measure, in the same setting: in the case of `Cn1cnc2c(F)c(Nc3ccc(I)cc3F)c(C(=O)NCCCO)cc21` [Compound 1] it was 550 nM.
Regarding `COC(=O)Cn1cnc2c(F)c(Nc3ccc(I)cc3C)c(C(=O)NOCC3CC3)cc21` [Compound 12], the IC50 in data set [1] stood at 22 nM.
Compound `Cc1cc(I)ccc1Nc1c(CO)cc2c(ncn2C)c1F` [Compound 28] registered a 50% inhibitory concentration (IC50) in data set [1] of 566 nM.
On the same count and under the same terms, the value for `Cc1cc(I)ccc1Nc1c(C(=O)NOCCO)cc2c(ncn2C)c1F` [Compound 13] was 3.4 nM; that for `Cc1cc(I)ccc1Nc1c(C(N)=O)cc2c(ncn2C)c1F` [Compound 22] was 41 nM; that for `Cn1cnc2c(F)c(Nc3ccc(I)cc3F)c(C(=O)NOCCO)cc21` [Compound 32] was 1.9 nM.
In turn, `Cc1cc(I)ccc1Nc1c(C(=O)NOCC2CC2)cc2c(ncn2CCCO)c1F` [Compound 16] returned a 50% inhibitory concentration (IC50) in data set [1] of 110 nM.
Still for that read-out and setting: the value for `CCCn1cnc2c(F)c(Nc3ccc(I)cc3C)c(C(=O)NOCC3CC3)cc21` [Compound 14] was 28 nM; that for `Cc1cc(I)ccc1Nc1c(C(=O)NOCC2CC2)cc2c(ncn2CC(O)CO)c1F` (stereo not shown) [Compound 35] was 8.85 nM.
For the compound `COC(=O)c1cc2c(ncn2C)c(F)c1Nc1ccc(I)cc1C` [Compound 11], in data set [1], the midpoint of inhibition, the IC50, lay at 1000 nM.
One may read the melting point as the temperature of the solid-liquid transition. As to `Cn1cnc2c(F)c(Nc3ccc(I)cc3F)c(C(N)=O)cc21` [Example 2], the melting point was 265 to 268 °C (dec.).
In turn, `Cc1cc(I)ccc1Nc1c(-c2nnc(N)o2)cc2c(ncn2C)c1F` [Example 4, [6-(5-amino-[1,3,4]oxadiazol-2-yl)-4-fluoro-1-methyl-1H-benzoimidazol-5-yl]-(4-iodo-2-methyl-phenyl)-amine] came in with a melting point of 258 to 260 °C.
On to `Cn1cnc2c(F)c(Nc3ccc(I)cc3F)c(C(=O)NCC(O)CO)cc21` (stereo not shown) [Compound 24], for which, in data set [1], 556 nM corresponded to half-maximal inhibition (IC50).
On the same count and under the same terms, the value for `Cn1cnc2c(F)c(Nc3ccc(I)cc3F)c(C(=O)NCCCO)cc21` [Compound 26] was 150 nM; that for `Cc1cc(I)ccc1Nc1c(C(=O)NOCC2CC2)cc2c(ncn2C)c1F` [Compound 9] was 12 nM; that for `Cn1cnc2c(F)c(Nc3ccc(I)cc3F)c(C(=O)NO)cc21` [Compound 30] was 0.4 nM.
For the compound `CNCCONC(=O)c1cc2c(ncn2C)c(F)c1Nc1ccc(I)cc1C` [Compound 20], the half-maximal inhibitory concentration (IC50) in data set [1] came out at 190 nM.
On the same count and under the same terms, in the case of `Cc1cc(I)ccc1Nc1c(-c2nnc(N)o2)cc2c(ncn2C)c1F` [Compound 21] it was 268 nM; in that of `Cn1cnc2c(F)c(Nc3ccc(I)cc3F)c(C(=O)NOC[C@H](O)CO)cc21` [Compound 34], 22 nM; in that of `Cn1cnc2c(F)c(Nc3ccc(I)cc3F)c(C(=O)NCCCN)cc21` [Compound 31], 1000 nM.
Same read-out and setting: in the case of `Cc1cc(I)ccc1Nc1c(C(=O)NOCC(O)CO)cc2c(ncn2C)c1F` (stereo not shown) [Compound 15] it was 86 nM.
In the case of `CCc1ccc(Nc2c(C(=O)OC)cc3c(ncn3C)c2F)c(F)c1` [Compound 38], the IC50 in data set [1] was 230 nM.
